{"source": "PubChem BioAssay AID256", "about": "(DTP/NCI, 2004)", "tested_on": "CD2F1 mice, L1210 leukemia ip, survival T/C", "assay": "NCI In Vivo Anticancer Drug Screen. Data for tumor model L1210 Leukemia (intraperitoneal) in CD2F1 (CDF1) mice", "settings": "higher = longer survival", "method_in_brief": "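Compound-dosed mice with transplantable tumor versus matched vehicle controls; endpoint ratio T/C reported.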", "key": {"[1]": {"settings": "endpoint: mean survival time, dose: 200.0 mg/kg/injection, schedule: Q01DX001 (ip), vehicle: saline"}, "[2]": {"settings": "endpoint: mean survival time, dose: 100.0 mg/kg/injection, schedule: Q01DX009 (ip), vehicle: saline with Tween-80"}, "[3]": {"settings": "endpoint: mean survival time, dose: 200.0 mg/kg/injection, schedule: Q01DX009 (ip), vehicle: saline with Tween-80"}, "[4]": {"settings": "endpoint: mean survival time, dose: 100.0 mg/kg/injection, schedule: Q01DX001 (ip), vehicle: Klucel (hydroxypropylcellulose) (HPC)"}, "[5]": {"settings": "endpoint: mean survival time, dose: 100.0 mg/kg/injection, schedule: Q01DX001 (ip), vehicle: saline with Tween-80"}, "[6]": {"settings": "endpoint: mean survival time, dose: 400.0 mg/kg/injection, schedule: Q01DX001 (ip), vehicle: saline with Tween-80"}, "[7]": {"settings": "endpoint: mean survival time, dose: 100.0 mg/kg/injection, schedule: Q04DX003 (ip), vehicle: saline with Tween-80"}, "[8]": {"settings": "endpoint: mean survival time, dose: 200.0 mg/kg/injection, schedule: Q04DX003 (ip), vehicle: saline with Tween-80"}, "[9]": {"settings": "endpoint: mean survival time, dose: 400.0 mg/kg/injection, schedule: Q01DX009 (ip), vehicle: saline with Tween-80"}}, "note": "Inconclusive results and toxic doses are left out.", "data": [{"smiles": "COc1cc(Br)c(CC2c3cc(OC)c(OC)cc3CCN2C)cc1OC", "note": "(stereo not given)", "values": [{"measurement": "T/C", "setting": "endpoint: mean survival time, dose: 100.0 mg/kg/injection, schedule: Q01DX001 (ip), vehicle: saline", "value": "101 % of control"}, {"measurement": "T/C", "setting": "[1]", "value": "101 % of control"}]}, {"smiles": "O=P(c1ccccc1)(c1ccccc1)c1ccccc1", "note": "(tested in a mixture with another compound)", "values": [{"measurement": "T/C", "setting": "endpoint: mean survival time, dose: 12.5 mg/kg/injection, schedule: Q01DX009 (ip), vehicle: other", "value": "100 % of control"}, {"measurement": "T/C", "setting": "endpoint: mean survival time, dose: 25.0 mg/kg/injection, schedule: Q01DX009 (ip), vehicle: other", "value": "100 % of control"}, {"measurement": "T/C", "setting": "endpoint: mean survival time, dose: 50.0 mg/kg/injection, schedule: Q01DX009 (ip), vehicle: other", "value": "101 % of control"}, {"measurement": "T/C", "setting": "endpoint: mean survival time, dose: 100.0 mg/kg/injection, schedule: Q01DX009 (ip), vehicle: other", "value": "96 % of control"}, {"measurement": "T/C", "setting": "endpoint: mean survival time, dose: 200.0 mg/kg/injection, schedule: Q01DX009 (ip), vehicle: other", "value": "103 % of control"}]}, {"smiles": "COC(=O)C1=CCC=CC1", "values": [{"measurement": "T/C", "setting": "[2]", "value": "104 % of control"}, {"measurement": "T/C", "setting": "[3]", "value": "104 % of control"}]}, {"smiles": "Cc1ccc(S(=O)(=O)/N=S(/C)CC/S(C)=N/S(=O)(=O)c2ccc(C)cc2)cc1", "note": "(stereo not given)", "values": [{"measurement": "T/C", "setting": "[4]", "value": "97 % of control"}, {"measurement": "T/C", "setting": "endpoint: mean survival time, dose: 200.0 mg/kg/injection, schedule: Q01DX001 (ip), vehicle: Klucel (hydroxypropylcellulose) (HPC)", "value": "102 % of control"}, {"measurement": "T/C", "setting": "endpoint: mean survival time, dose: 400.0 mg/kg/injection, schedule: Q01DX001 (ip), vehicle: Klucel (hydroxypropylcellulose) (HPC)", "value": "100 % of control"}]}, {"smiles": "CC1CCCCN1", "note": "(stereo not given)", "values": [{"measurement": "T/C", "setting": "[5]", "value": "95 % of control"}, {"measurement": "T/C", "setting": "[6]", "value": "95 % of control"}]}, {"smiles": "COc1nc(NC2OC(CO)C(O)C(O)C2O)cc(=O)[nH]1", "note": "(stereo not given)", "values": [{"measurement": "T/C", "setting": "endpoint: median survival time, dose: 12.5 mg/kg/injection, schedule: Q01DX005 (ip), vehicle: saline", "value": "105 % of control"}, {"measurement": "T/C", "setting": "endpoint: median survival time, dose: 25.0 mg/kg/injection, schedule: Q01DX005 (ip), vehicle: saline", "value": "97 % of control"}, {"measurement": "T/C", "setting": "endpoint: median survival time, dose: 50.0 mg/kg/injection, schedule: Q01DX005 (ip), vehicle: saline", "value": "100 % of control"}, {"measurement": "T/C", "setting": "endpoint: median survival time, dose: 100.0 mg/kg/injection, schedule: Q01DX005 (ip), vehicle: saline", "value": "100 % of control"}, {"measurement": "T/C", "setting": "endpoint: median survival time, dose: 200.0 mg/kg/injection, schedule: Q01DX005 (ip), vehicle: saline", "value": "102 % of control"}]}, {"smiles": "CN(C)CCSc1nnc(N)s1", "values": [{"measurement": "T/C", "setting": "[1]", "value": "100 % of control"}]}, {"smiles": "Cc1ccc(S(=O)(=O)OCC2C3CC(c4ccccc43)C2COS(=O)(=O)c2ccc(C)cc2)cc1", "note": "(stereo not given)", "values": [{"measurement": "T/C", "setting": "endpoint: mean survival time, dose: 100.0 mg/kg/injection, schedule: Q04DX002 (ip), vehicle: saline with Tween-80", "value": "102 % of control"}, {"measurement": "T/C", "setting": "endpoint: mean survival time, dose: 200.0 mg/kg/injection, schedule: Q04DX002 (ip), vehicle: saline with Tween-80", "value": "111 % of control"}, {"measurement": "T/C", "setting": "endpoint: mean survival time, dose: 400.0 mg/kg/injection, schedule: Q04DX002 (ip), vehicle: saline with Tween-80", "value": "95 % of control"}]}, {"smiles": "O=P(c1ccccc1)(c1ccccc1)c1ccccc1", "values": [{"measurement": "T/C", "setting": "[2]", "value": "97 % of control"}, {"measurement": "T/C", "setting": "[7]", "value": "97 % of control"}, {"measurement": "T/C", "setting": "[3]", "value": "95 % of control"}, {"measurement": "T/C", "setting": "[8]", "value": "100 % of control"}, {"measurement": "T/C", "setting": "[9]", "value": "100 % of control"}]}, {"smiles": "CCOC(OCC)c1ccccc1", "note": "(tested in a mixture with another compound)", "values": [{"measurement": "T/C", "setting": "[7]", "value": "97 % of control"}, {"measurement": "T/C", "setting": "[8]", "value": "97 % of control"}, {"measurement": "T/C", "setting": "endpoint: mean survival time, dose: 400.0 mg/kg/injection, schedule: Q04DX003 (ip), vehicle: saline with Tween-80", "value": "97 % of control"}]}, {"smiles": "Clc1nnc(-c2ccccc2)c(-c2ccccc2)n1", "values": [{"measurement": "T/C", "setting": "endpoint: mean survival time, dose: 100.0 mg/kg/injection, schedule: Q04DX003 (ip), vehicle: saline", "value": "91 % of control"}]}, {"smiles": "O=C(Nc1ccccc1)Nc1cc(Cl)ccc1O", "values": [{"measurement": "T/C", "setting": "[5]", "value": "98 % of control"}, {"measurement": "T/C", "setting": "endpoint: mean survival time, dose: 200.0 mg/kg/injection, schedule: Q01DX001 (ip), vehicle: saline with Tween-80", "value": "98 % of control"}, {"measurement": "T/C", "setting": "[6]", "value": "91 % of control"}]}, {"smiles": "S=C1N(C2CCCCC2)CCN1C1CCCCC1", "values": [{"measurement": "T/C", "setting": "endpoint: mean survival time, dose: 25.0 mg/kg/injection, schedule: Q01DX001 (ip), vehicle: Klucel (hydroxypropylcellulose) (HPC)", "value": "108 % of control"}, {"measurement": "T/C", "setting": "endpoint: mean survival time, dose: 50.0 mg/kg/injection, schedule: Q01DX001 (ip), vehicle: Klucel (hydroxypropylcellulose) (HPC)", "value": "108 % of control"}, {"measurement": "T/C", "setting": "[4]", "value": "103 % of control"}]}, {"smiles": "CCCCCCCCCCCCCCCCOS(=O)(=O)O", "values": [{"measurement": "T/C", "setting": "endpoint: mean survival time, dose: 37.5 mg/kg/injection, schedule: Q01DX009 (ip), vehicle: saline", "value": "98 % of control"}, {"measurement": "T/C", "setting": "endpoint: mean survival time, dose: 75.0 mg/kg/injection, schedule: Q01DX009 (ip), vehicle: saline", "value": "97 % of control"}, {"measurement": "T/C", "setting": "endpoint: mean survival time, dose: 150.0 mg/kg/injection, schedule: Q01DX009 (ip), vehicle: saline", "value": "98 % of control"}]}, {"smiles": "CCC(C(=O)OCCNC1CCCCC1)c1ccccc1", "note": "(stereo not given)", "values": [{"measurement": "T/C", "setting": "endpoint: mean survival time, dose: 75.0 mg/kg/injection, schedule: Q01DX001 (ip), vehicle: saline", "value": "110 % of control"}]}, {"smiles": "CCCCCCCCCSCC", "values": [{"measurement": "T/C", "setting": "[2]", "value": "100 % of control"}, {"measurement": "T/C", "setting": "[3]", "value": "100 % of control"}, {"measurement": "T/C", "setting": "[9]", "value": "88 % of control"}]}]}
